Data: US10857105B2, “Compounds and compositions for intracellular delivery of therapeutic agents” (ModernaTX, Inc., priority 2017, dated 2020)

Key:
[1] = Encapsulation efficiency of RNA in nanoparticle compositions (RIBOGREEN assay); format: physicochemical; details: Table 1A; lipid:DSPC:cholesterol:PEG-DMG 50:10:38.5:1.5 mol %
How it was run: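 Lipid nanoparticles (ionisable lipid:DSPC:cholesterol:PEG-DMG 50:10:38.5:1.5 mol %) carrying N1-methylpseudouridine luciferase or hEPO mRNA diluted to about 5 μg/mL in TE, pH 7.5, with or without 2% Triton X-100, 15 min at 37° C. RiboGreen fluorescence (ex ~480, em ~520 nm) blank-subtracted; free RNA = intact/disrupted signal.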

[2] = Particle size and polydispersity index of nanoparticle compositions (Zetasizer Nano ZS); format: physicochemical
How it was run: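 Formulations of ionizable lipid, DSPC, cholesterol and PEG-DMG (50:10:38.5:1.5 mol %) carrying Luc or hEPO mRNA with all uridines as N1-methyl pseudouridine. Dynamic light scattering in 1×PBS gave particle size and polydispersity; zeta potential read in 15 mM PBS.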

IL-6, IP-10 = experiment: Cytokine induction (IL-6, IP-10) in mice 6 hours after intravenous administration; format: in vivo; design: unit not given here; details: intravenous 0.5 mpk
Excerpt: The introduction of foreign material into a mammalian body induces an innate immune response that promotes cytokine production. Such immune responses to, for example, nanoparticle compositions including therapeutic and/or prophylactics, are undesirable. The induction of certain cytokines is thus measured to evaluate the […] of nanoparticle compositions. The concentrations of various cytokines in mice upon intravenous administration of nanoparticle compositions presented in Table 1A at a dosage of 0.5 mpk was measured at 6 hours. The standard MC3 formulation and a PBS control were also tested. As is evident in Table 7, IL-6 induction was highest for compositions including Compounds 1, 3, 9, 19, and 26, while IP-10 induction was highest for compositions including Compounds 3, 4, 7, 20, and 26. IL-6 induction was lowest for compositions including Compounds 4, 11, 12, and 28. IP-10 induction was lowest for compositions including Compounds 10, 11, 12, 13, 15, 17, and 18.

modified luciferase = experiment: Luciferase expression in liver, lung, spleen and femur 6 hours after intravenous administration to mice; format: in vivo; details: for Total Flux, Femur / Total Flux, Liver / Total Flux, Lung / Total Flux, Spleen: 6 hours after intravenous 0.5 mpk, mice
How it was run: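 Mice (n=3) got a single 0.5 mpk IV dose of each nanoparticle composition, with MC3 and PBS controls alongside. Organ luminescence flux was read 6 h post-dose.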

luciferase (Luc) mRNA = experiment: Luciferase expression (whole body bioluminescence) after intravenous administration to mice; format: in vivo; details: intravenous
How it was run: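 Luc mRNA nanoparticles were given IV at 0.5 mg/kg to groups of six mice, and whole-body bioluminescent flux was imaged 3, 6 and 24 h post-dose. Flux AUC for each lipid formulation was reported as a ratio to the MC3 reference formulation.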

[3] = Table 1A, lipid:DSPC:cholesterol:PEG-DMG 50:10:38.5:1.5 mol %

Compound: CCCCCCCCCCCCCCN(CCO)CCCCCCCC(=O)OC(CCCCCCCC)CCCCCCCC [Compound 2, Heptadecan-9-yl 8-((2-hydroxyethyl)(tetradecyl)amino)octanoate]
- EE [1]: 93.88%
- Size [2, 3]: 83.9 nm
- Cytokine induction, IL-6 (IL-6, IP-10): 70.95
- Cytokine induction, IP-10 (IL-6, IP-10): 468.86
- Total Flux, Femur (modified luciferase): 3.86E+06
- Total Flux, Liver (modified luciferase): 4.87E+09
- Total Flux, Lung (modified luciferase): 2.52E+07
- Total Flux, Spleen (modified luciferase): 5.77E+07

Compound: CCCCCCCCC(CCCCCCCC)OC(=O)CCCCCCCN(CCO)CCCCCCCC [Compound 4, Heptadecan-9-yl 8-((2-hydroxyethyl)(octyl)amino)octanoate]
- EE [1]: 95.10%
- Size [2, 3]: 120.5 nm
- Cytokine induction, IL-6 (IL-6, IP-10): 13.1375
- Cytokine induction, IP-10 (IL-6, IP-10): 2253.09
- Total Flux, Liver (modified luciferase): 5.26E+09
- Total Flux, Lung (modified luciferase): 6.22E+07
- Total Flux, Spleen (modified luciferase): 4.09E+08

Compound: CCCCCCCCCOC(=O)CCCCCCCN(CCCCCCCC(=O)OC(CCCCCCCC)CCCCCCCC)CCOC(C)=O [Compound 9, Heptadecan-9-yl 8-((2-acetoxyethyl)(8-(nonyloxy)-8-oxooctyl)amino) octanoate]
- EE [1]: 75.7%
- Size [2, 3]: 68.5 nm
- Cytokine induction, IL-6 (IL-6, IP-10): 317.45
- Cytokine induction, IP-10 (IL-6, IP-10): 366.53
- Total Flux, Femur (modified luciferase): 2.57E+04
- Total Flux, Liver (modified luciferase): 4.30E+05
- Total Flux, Lung (modified luciferase): 2.56E+04
- Total Flux, Spleen (modified luciferase): 5.51E+04

Compound: CCCCCCCCCOC(=O)CCCCCCCN(CCCCCCCC(=O)OC(CCCCCCCC)CCCCCCCC)CC(C)O (centres unmarked) [Compound 10, Heptadecan-9-yl 8-((2-hydroxypropyl)(8-(nonyloxy)-8-oxooctyl)amino) octanoate]
- EE [1]: 89.60%
- Size [2, 3]: 102.9 nm
- Cytokine induction, IL-6 (IL-6, IP-10): 88.81
- Cytokine induction, IP-10 (IL-6, IP-10): 138.16
- Total Flux, Femur (modified luciferase): 5.09E+05
- Total Flux, Liver (modified luciferase): 3.22E+08
- Total Flux, Lung (modified luciferase): 8.85E+05
- Total Flux, Spleen (modified luciferase): 8.17E+06

Compound: CCCCCCCCCOC(=O)CCCCCCCN(CCCCCCCC(=O)OC(CCCCCCCC)CCCCCCCC)C[C@@H](C)O [Compound 11, Heptadecan-9-yl (R)-8-((2-hydroxypropyl)(8-(nonyloxy)-8-oxooctyl)amino)octanoate]
- EE [1]: 92.47%
- Size [2, 3]: 129.6 nm
- Cytokine induction, IL-6 (IL-6, IP-10): 0.14
- Cytokine induction, IP-10 (IL-6, IP-10): 44.84
- Total Flux, Liver (modified luciferase): 8.03E+08
- Total Flux, Lung (modified luciferase): 1.35E+07
- Total Flux, Spleen (modified luciferase): 1.04E+08

Compound: CCCCCCCCCOC(=O)CCCCCCCN(CCCCCCCC(=O)OC(CCCCCCCC)CCCCCCCC)C[C@H](C)O [Compound 12, Heptadecan-9-yl (S)-8-((2-hydroxypropyl)(8-(nonyloxy)-8-oxooctyl)amino)octanoate]
- EE [1]: 92.44%
- Size [2, 3]: 116.7 nm
- Cytokine induction, IL-6 (IL-6, IP-10): 3.88
- Cytokine induction, IP-10 (IL-6, IP-10): 32.03
- Total Flux, Liver (modified luciferase): 6.84E+08
- Total Flux, Lung (modified luciferase): 7.45E+06
- Total Flux, Spleen (modified luciferase): 6.82E+07

Compound: CCCCCCCCCOC(=O)CCCCCCCN(CCCCCCCC(=O)OC(CCCCCCCC)CCCCCCCC)CC(O)CC (centres unmarked) [Compound 13, Heptadecan-9-yl 8-((2-hydroxybutyl)(8-(nonyloxy)-8-oxooctyl)amino) octanoate]
- EE [1]: 92.28%
- Size [2, 3]: 79.4 nm
- Cytokine induction, IL-6 (IL-6, IP-10): 29.07
- Cytokine induction, IP-10 (IL-6, IP-10): 126.29
- Total Flux, Femur (modified luciferase): 1.35E+05
- Total Flux, Liver (modified luciferase): 2.25E+07
- Total Flux, Lung (modified luciferase): 2.21E+05
- Total Flux, Spleen (modified luciferase): 7.09E+05

Compound: CCCCCCCCCOC(=O)CCCCCCCN(CCCCCCCC(=O)OC(CCCCCCCC)CCCCCCCC)CCOC [Compound 15, Heptadecan-9-yl 8-((2-methoxyethyl)(8-(nonyloxy)-8-oxooctyl)amino)octanoate]
- EE [1]: 92.47%
- Size [2, 3]: 111.1 nm
- Cytokine induction, IL-6 (IL-6, IP-10): 64.65
- Cytokine induction, IP-10 (IL-6, IP-10): 184.30
- Total Flux, Femur (modified luciferase): 5.93E+04
- Total Flux, Liver (modified luciferase): 6.23E+06
- Total Flux, Lung (modified luciferase): 6.41E+04
- Total Flux, Spleen (modified luciferase): 9.01E+05

Compound: CCCCCCCCCOC(=O)CCCCCCCN(CCCCCCCC(=O)OC(CCCCCCCC)CCCCCCCC)CCCOC [Compound 16, Heptadecan-9-yl 8-((3-methoxypropyl)(8-(nonyloxy)-8-oxooctyl)amino) octanoate]
- EE [1]: 91.32%
- Size [2, 3]: 119.0 nm
- Cytokine induction, IL-6 (IL-6, IP-10): 32.01
- Cytokine induction, IP-10 (IL-6, IP-10): 206.75
- Total Flux, Femur (modified luciferase): 2.55E+05
- Total Flux, Liver (modified luciferase): 3.17E+07
- Total Flux, Lung (modified luciferase): 4.18E+05
- Total Flux, Spleen (modified luciferase): 5.43E+06

Compound: CCCCCCCCCOC(=O)CCCCCCCN(CCCCCCCC(=O)OC(CCCCCCCC)CCCCCCCC)CCOCCN(C)C [Compound 17, Heptadecan-9-yl 8-((2-(2-(dimethylamino)ethoxy)ethyl) (8-(nonyloxy)-8-oxooctyl)amino)octanoate]
- EE [1]: 91.84%
- Size [2, 3]: 85.2 nm
- Cytokine induction, IL-6 (IL-6, IP-10): 138.43
- Cytokine induction, IP-10 (IL-6, IP-10): 156.41
- Total Flux, Femur (modified luciferase): 9.55E+04
- Total Flux, Liver (modified luciferase): 5.52E+05
- Total Flux, Lung (modified luciferase): 9.95E+04
- Total Flux, Spleen (modified luciferase): 5.58E+06

Compound: CCCCCCCCCOC(=O)CCCCCCCN(CCCO)CCCCCCCC(=O)OC(CCCCCCCC)CCCCCCCC [Compound 19, Heptadecan-9-yl 8-((3-hydroxypropyl)(8-(nonyloxy)-8-oxooctyl)amino) octanoate]
- Size [2, 3]: 101.1 nm
- Size ([2]; Table 1E, compositions for subcutaneous administration): 80.7 nm
- Cytokine induction, IL-6 (IL-6, IP-10): 285.56
- Cytokine induction, IP-10 (IL-6, IP-10): 1468.94
- Total Flux, Femur (modified luciferase): 1.68E+06
- Total Flux, Liver (modified luciferase): 6.33E+08
- Total Flux, Lung (modified luciferase): 5.99E+06
- Total Flux, Spleen (modified luciferase): 1.77E+07
- Novel lipid/MC3 expression ratio, i.v. (luciferase (Luc) mRNA; luciferase, 6 hr. time point, relative to MC3 formulation): 0.96

Compound: CCCCCCCCCOC(=O)CCCCCCCN(CCCCCCCC(=O)OC(CCCCCCCC)CCCCCCCC)C1CCCCC1O (centres unmarked) [Compound 22, Heptadecan-9-yl 8-((2-hydroxycyclohexyl)(8-(nonyloxy)-8-oxooctyl)amino)octanoate]
- EE [1]: 96.00%
- Size [2, 3]: 80.2 nm
- Cytokine induction, IL-6 (IL-6, IP-10): 90.54
- Cytokine induction, IP-10 (IL-6, IP-10): 976.50
- Total Flux, Femur (modified luciferase): 1.16E+05
- Total Flux, Liver (modified luciferase): 4.00E+07
- Total Flux, Lung (modified luciferase): 4.73E+05
- Total Flux, Spleen (modified luciferase): 1.57E+06

Compound: CCCCCCCCCCCCN(CCO)CCCCCCCCCCCC(=O)OC [Compound 137, Methyl 12-(dodecyl(2-hydroxyethyl)amino)dodecanoate]
- EE [1]: 85.7%
- PDI [2, 3]: <1
- Cytokine induction, IL-6 (IL-6, IP-10): 130.82
- Cytokine induction, IP-10 (IL-6, IP-10): 234.35
- Total Flux, Femur (modified luciferase): 2.02E+04
- Total Flux, Liver (modified luciferase): 6.48E+04
- Total Flux, Lung (modified luciferase): 1.66E+04
- Flux in the liver (modified luciferase; mice (n=3), intravenous, 0.5 mpk, 6 hours): lowest
- Total Flux, Spleen (modified luciferase): 1.32E+05
- Flux at all timepoints measured (luciferase (Luc) mRNA; mice, 0.5 mg/kg, 3, 6 and 24 hours): significantly lower flux

Compound: CCCCCCCC/C=C\COC(=O)CCCCCN(CCO)CCCCCC(=O)OC/C=C\CCCCCCCC [Compound 140, Di((Z)-undec-2-en-1-yl) 6,6′-((2-hydroxyethyl)azanediyl)dihexanoate]
- EE [1]: 89.2%
- Size [2, 3]: 120.3 nm
- Cytokine induction, IL-6 (IL-6, IP-10): 282.82
- Cytokine induction, IP-10 (IL-6, IP-10): 187.83
- Total Flux, Femur (modified luciferase): 3.26E+04
- Total Flux, Liver (modified luciferase): 4.21E+05
- Total Flux, Lung (modified luciferase): 2.14E+04
- Total Flux, Spleen (modified luciferase): 2.22E+05

Compound: CCCCCCCCCCCOC(=O)CCCCCN(CCO)CCCCCC(=O)OCCCCCCCCCCC [Compound 141, Diundecyl 6,6′-((2-hydroxyethyl)azanediyl)dihexanoate]
- EE [1]: 94.1%
- Size [2, 3]: 91.3 nm
- Cytokine induction, IL-6 (IL-6, IP-10): 327.15
- Cytokine induction, IP-10 (IL-6, IP-10): 1072.04
- Total Flux, Femur (modified luciferase): 2.86E+04
- Total Flux, Liver (modified luciferase): 1.59E+05
- Total Flux, Lung (modified luciferase): 3.85E+04
- Total Flux, Spleen (modified luciferase): 6.29E+04

Compound: CCCCCCCCCOC(=O)CCCCCCCN(CCO)CCCCCCCC(=O)N(CCCCCCCC)CCCCCCCC [Compound 144, Nonyl 8-((8-(dioctylamino)-8-oxooctyl)(2-hydroxyethyl)amino)octanoate]
- EE [1]: 90.3%
- Size [2, 3]: 135.9 nm
- Cytokine induction, IL-6 (IL-6, IP-10): 319.46
- Cytokine induction, IP-10 (IL-6, IP-10): 4220.55
- Total Flux, Femur (modified luciferase): 2.44E+06
- Total Flux, Liver (modified luciferase): 3.75E+08
- Total Flux, Lung (modified luciferase): 4.81E+06
- Total Flux, Spleen (modified luciferase): 5.11E+07
